Results on four molecules are retold here after publication PMC9578445, “Association of respiratory failure with inhibition of NaV1.6 in the phrenic nerve” (Channels, 2022).

pIC50: −log10 of the molar value.

One data set has as its target T1, Rat NaV1.6 (Rattus norvegicus, UniProt O88420).
T1 construct: expressed in transfected cells; host or cells: HEK cells
The data set is described as follows: PatchXpress automated patch clamp, hyperpolarized-state protocol. The class given is cell-based. The note with it: for pIC50: HEK cells, hyperpolarized protocol. Here is the method: (§1) Sodium currents were recorded from recombinant Human Embryonic Kidney 293 cell lines stably overexpressing the respective sodium channel type (NaV1.2, 1.5, 1.4, 1.6, 1.7). Recording solutions were comprised of the following (in mM): Internal solution: 30 CsCl, 5 HEPES, 10 EGTA, 120 CsF, 5 NaF, 2 MgCl2, pH = 7.3 with CsOH; External solution 1: 40 NaCl, 120 NMDG, 1 KCl, 0.5 MgCl2, 5 HEPES, 2.7 CaCl2, pH to 7.3 with NaOH, used for NaV1.5 recordings; External solution 2: 150 NaCl, 5 KCl, 2 CaCl2, 1 MgCl2, 10 HEPES, 12 Dextrose, pH 7.3 with NaOH, used for NaV1.7, 1.6, 1.4, and 1.2 recordings.
(§2) Whole-cell currents were recorded from cells stably expressing NaV channels using the PatchXpress 7000A automated patch clamp platform (Molecular Devices, LLC; Sunnyvale, CA). A portable air-conditioning unit was installed on the PatchXpress instruments to maintain the temperature of the headstage at 21°C. Cells were voltage clamped at −60 mV for cell detection and sealing. At the start of each recording, a voltage curve and an inactivation curve was run for each cell to determine the voltage at which 50% of the channels reside in the inactivated state (V0.5 inact). The voltage curve was used to determine if the cell was adequately clamped; cells with currents larger than 10nA or with space clamp issues were not used further.
(§3) NaV1.7, NaV1.6, NaV1.4: Compound potency was measured in a hyperpolarized-state protocol where the holding potential for each cell was set to V0.5inact – 20 mV. A pulse train consisting of 7 consecutive double pulses, 8 second hypepolarizing prepulse to −120 mV followed by a test pulse to −10 mV was applied at a frequency of 0.1 Hz. First, vehicle (0.3% DMSO) was added to establish a baseline measurement. Once baseline was established, test compounds were added. Cells were exposed to compound for 5 minutes at 20 mV negative to V0.5inact then exposed to the same hyperpolarized voltage protocol. (no pulsing during compound incubation). A washout was performed to measure recovery of the sodium currents from inhibition.
(§4) Recordings were included for analysis when current amplitude reached steady-state in vehicle, compound inhibition was concentration-dependent and currents recovered during wash-out periods. Raw data from PatchXpress experiments were retrieved from the database and analyzed using the DataXpress 2 software (Molecular Devices).
(§5) At least 3 concentrations (3–9 replicates per concentration) were tested and at least one concentration had to cause 20–80% current inhibition.
In general terms: In patch-clamp work, channel activity is measured electrically.

The next data set concerns the target T2, Human NaV1.4 (Homo sapiens, UniProt P35499).
T2 construct: expressed in transfected cells
The description is as above. The class given is cell-based. The note with it: HEK 293 cells. Here is the method: as §1, §2, §3, §4, §5

Another data set deals with T3, Human NaV1.7 (Homo sapiens, UniProt Q15858).
T3 construct: expressed in transfected cells
T3 sequence (Q15858 whole entry): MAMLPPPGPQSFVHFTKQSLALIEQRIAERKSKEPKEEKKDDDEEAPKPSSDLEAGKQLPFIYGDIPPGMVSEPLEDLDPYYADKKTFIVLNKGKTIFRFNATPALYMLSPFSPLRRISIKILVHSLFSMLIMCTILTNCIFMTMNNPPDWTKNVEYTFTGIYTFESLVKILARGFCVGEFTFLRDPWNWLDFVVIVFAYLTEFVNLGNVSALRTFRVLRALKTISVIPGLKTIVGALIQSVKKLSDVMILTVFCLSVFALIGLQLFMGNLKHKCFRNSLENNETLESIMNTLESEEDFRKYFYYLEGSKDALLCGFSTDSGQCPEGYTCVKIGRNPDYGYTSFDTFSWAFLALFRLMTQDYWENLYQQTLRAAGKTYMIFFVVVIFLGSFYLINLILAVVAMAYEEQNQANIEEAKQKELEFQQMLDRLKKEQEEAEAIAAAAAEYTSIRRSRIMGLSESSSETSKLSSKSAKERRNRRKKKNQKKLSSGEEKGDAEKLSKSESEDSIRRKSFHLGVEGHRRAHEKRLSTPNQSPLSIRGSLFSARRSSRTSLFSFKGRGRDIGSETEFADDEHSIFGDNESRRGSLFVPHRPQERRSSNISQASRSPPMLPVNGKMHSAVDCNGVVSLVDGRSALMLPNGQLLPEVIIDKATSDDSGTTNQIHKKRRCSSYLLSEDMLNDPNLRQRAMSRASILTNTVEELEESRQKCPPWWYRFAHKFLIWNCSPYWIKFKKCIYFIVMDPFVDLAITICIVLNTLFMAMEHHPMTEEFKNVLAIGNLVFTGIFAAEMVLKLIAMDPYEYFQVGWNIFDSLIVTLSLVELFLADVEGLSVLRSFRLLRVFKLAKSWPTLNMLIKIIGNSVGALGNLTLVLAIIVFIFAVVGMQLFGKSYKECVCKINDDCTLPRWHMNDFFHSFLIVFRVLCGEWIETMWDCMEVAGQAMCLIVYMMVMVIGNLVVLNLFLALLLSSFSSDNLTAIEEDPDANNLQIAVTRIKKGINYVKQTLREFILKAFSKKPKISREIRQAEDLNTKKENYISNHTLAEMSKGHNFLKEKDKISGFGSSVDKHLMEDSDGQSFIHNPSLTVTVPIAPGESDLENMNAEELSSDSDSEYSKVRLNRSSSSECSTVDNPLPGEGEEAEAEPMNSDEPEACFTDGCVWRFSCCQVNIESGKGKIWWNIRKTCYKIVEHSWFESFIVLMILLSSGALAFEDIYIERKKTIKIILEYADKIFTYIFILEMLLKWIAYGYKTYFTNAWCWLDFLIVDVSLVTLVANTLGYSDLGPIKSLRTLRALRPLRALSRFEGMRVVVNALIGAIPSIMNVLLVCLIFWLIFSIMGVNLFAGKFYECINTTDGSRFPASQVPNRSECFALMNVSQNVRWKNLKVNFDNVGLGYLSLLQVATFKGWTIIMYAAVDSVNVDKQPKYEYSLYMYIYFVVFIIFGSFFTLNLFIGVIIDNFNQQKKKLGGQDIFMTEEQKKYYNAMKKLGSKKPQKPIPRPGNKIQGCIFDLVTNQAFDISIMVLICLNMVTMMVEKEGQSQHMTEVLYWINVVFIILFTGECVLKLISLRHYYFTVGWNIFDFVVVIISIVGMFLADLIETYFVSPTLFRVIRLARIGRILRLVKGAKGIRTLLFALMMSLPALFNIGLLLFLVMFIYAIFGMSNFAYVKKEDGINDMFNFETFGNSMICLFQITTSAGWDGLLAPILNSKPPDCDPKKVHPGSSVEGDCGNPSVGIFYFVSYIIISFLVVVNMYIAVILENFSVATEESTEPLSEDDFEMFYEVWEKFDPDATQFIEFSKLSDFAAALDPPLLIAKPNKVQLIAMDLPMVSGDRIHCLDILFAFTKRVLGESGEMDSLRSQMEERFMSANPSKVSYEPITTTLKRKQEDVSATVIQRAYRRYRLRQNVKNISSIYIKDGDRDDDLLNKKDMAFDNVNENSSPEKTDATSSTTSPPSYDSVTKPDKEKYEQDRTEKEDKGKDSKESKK
The data set is described as above. It is filed as cell-based. The conditions noted are these: HEK 293 cells. Here is the method: as §1, §2, §3, §4, §5

In data set [1] the test system is anesthetized male CD rats. The data set is described as follows: Rat Cardiovascular/Respiratory (CV/R) assay. It is filed as in vivo. Also on record: ∆ QRS Interval: unit not given here. Here is the method:
Male CD Rats were anesthetized with ketamine:xylazine (85 mg/kg:5 mg/kg, im, to effect). The left femoral artery and vein were cannulated for the measurement of blood pressure and the administration of test agent, respectively. The right femoral vein was cannulated for maintenance anesthetic infusion (ketamine:xylazine ~35 mg/kg/hr:1.5 mg/kg/hr, iv, to effect). Needle electrodes were placed subcutaneously at the right axillary and left inguinal areas to record lead II ECGs. When ECG intervals were required to determine effect on cardiac conduction a pacing/recording electrode catheter was advanced through the right jugular vein to pace the heart. ECG intervals were then measured at a fixed cardiac rate of 400 beats/minute to remove any variability of intrinsic heart rate on these parameters.
To determine the test agent-dependent effect on respiratory rate, a tracheotomy was also performed using a short length of polyethylene tubing containing a thermistor (AD Instruments). The change in temperature detected by the thermistor was used to calculate respiratory rate.
For in vivo CVR and phrenic nerve activity studies, all raw signals were amplified via general purposed biological amplifier (filter settings DC – 3-5 KhZ) then digitized, calibrated and collected at a minimum of 500 Hz (1000 Hz for ECG and 2000 Hz for cardiac electrograms, and 10 KHz for phrenic nerve activity) using Notocord-HEM data acquisition and analysis software. The raw signal was filtered following acquisition with a bandpass filter set to 200–800 Hz). Vehicle (100% dimethylformamdide, DMF) or compound formulated in the vehicle was administered as a 30-minute IV infusion at 0.0167 μL/g body weight/min. Doses were selected to achieve unbound plasma concentrations in range of measured Nav1.6 IC50 values when infused at 0.0167uL/g body weight/min based on measured rat clearance, plasma protein binding and Nav1.6 IC50. Exposure in rats was determined in separate pharmacokinetics experiments where compounds were administered via IV dosing.

Where [2] appears, read: rat, IV infusion, 10 mg/kg, 15 min.
Setting [3] is: rat, IV infusion, 10 mg/kg, 30 min.
The mark [4] stands for this setting: rat, IV infusion, 30 mg/kg, 15 min.
Setting [5] is: rat CV/R assay, IV infusion, doses tested.
The mark [6] stands for this setting: rat, IV infusion, 7 mg/kg, 15 min.
Setting [7] is: rat, IV infusion, 7 mg/kg, 30 min.
Where [8] appears, read: rat, IV infusion, 14 mg/kg, 15 min.
Where [9] appears, read: rat, IV infusion, 14 mg/kg, 30 min.
[10] abbreviates: rat, IV infusion, 30 mg/kg, 30 min.
Where [11] appears, read: rat, IV infusion, 1 mg/kg, 15 min.
The mark [12] stands for this setting: rat, IV infusion, 1 mg/kg, 30 min.
The mark [13] stands for this setting: rat, IV infusion, 60 mg/kg, 15 min.

T1 sequence (O88420 whole entry): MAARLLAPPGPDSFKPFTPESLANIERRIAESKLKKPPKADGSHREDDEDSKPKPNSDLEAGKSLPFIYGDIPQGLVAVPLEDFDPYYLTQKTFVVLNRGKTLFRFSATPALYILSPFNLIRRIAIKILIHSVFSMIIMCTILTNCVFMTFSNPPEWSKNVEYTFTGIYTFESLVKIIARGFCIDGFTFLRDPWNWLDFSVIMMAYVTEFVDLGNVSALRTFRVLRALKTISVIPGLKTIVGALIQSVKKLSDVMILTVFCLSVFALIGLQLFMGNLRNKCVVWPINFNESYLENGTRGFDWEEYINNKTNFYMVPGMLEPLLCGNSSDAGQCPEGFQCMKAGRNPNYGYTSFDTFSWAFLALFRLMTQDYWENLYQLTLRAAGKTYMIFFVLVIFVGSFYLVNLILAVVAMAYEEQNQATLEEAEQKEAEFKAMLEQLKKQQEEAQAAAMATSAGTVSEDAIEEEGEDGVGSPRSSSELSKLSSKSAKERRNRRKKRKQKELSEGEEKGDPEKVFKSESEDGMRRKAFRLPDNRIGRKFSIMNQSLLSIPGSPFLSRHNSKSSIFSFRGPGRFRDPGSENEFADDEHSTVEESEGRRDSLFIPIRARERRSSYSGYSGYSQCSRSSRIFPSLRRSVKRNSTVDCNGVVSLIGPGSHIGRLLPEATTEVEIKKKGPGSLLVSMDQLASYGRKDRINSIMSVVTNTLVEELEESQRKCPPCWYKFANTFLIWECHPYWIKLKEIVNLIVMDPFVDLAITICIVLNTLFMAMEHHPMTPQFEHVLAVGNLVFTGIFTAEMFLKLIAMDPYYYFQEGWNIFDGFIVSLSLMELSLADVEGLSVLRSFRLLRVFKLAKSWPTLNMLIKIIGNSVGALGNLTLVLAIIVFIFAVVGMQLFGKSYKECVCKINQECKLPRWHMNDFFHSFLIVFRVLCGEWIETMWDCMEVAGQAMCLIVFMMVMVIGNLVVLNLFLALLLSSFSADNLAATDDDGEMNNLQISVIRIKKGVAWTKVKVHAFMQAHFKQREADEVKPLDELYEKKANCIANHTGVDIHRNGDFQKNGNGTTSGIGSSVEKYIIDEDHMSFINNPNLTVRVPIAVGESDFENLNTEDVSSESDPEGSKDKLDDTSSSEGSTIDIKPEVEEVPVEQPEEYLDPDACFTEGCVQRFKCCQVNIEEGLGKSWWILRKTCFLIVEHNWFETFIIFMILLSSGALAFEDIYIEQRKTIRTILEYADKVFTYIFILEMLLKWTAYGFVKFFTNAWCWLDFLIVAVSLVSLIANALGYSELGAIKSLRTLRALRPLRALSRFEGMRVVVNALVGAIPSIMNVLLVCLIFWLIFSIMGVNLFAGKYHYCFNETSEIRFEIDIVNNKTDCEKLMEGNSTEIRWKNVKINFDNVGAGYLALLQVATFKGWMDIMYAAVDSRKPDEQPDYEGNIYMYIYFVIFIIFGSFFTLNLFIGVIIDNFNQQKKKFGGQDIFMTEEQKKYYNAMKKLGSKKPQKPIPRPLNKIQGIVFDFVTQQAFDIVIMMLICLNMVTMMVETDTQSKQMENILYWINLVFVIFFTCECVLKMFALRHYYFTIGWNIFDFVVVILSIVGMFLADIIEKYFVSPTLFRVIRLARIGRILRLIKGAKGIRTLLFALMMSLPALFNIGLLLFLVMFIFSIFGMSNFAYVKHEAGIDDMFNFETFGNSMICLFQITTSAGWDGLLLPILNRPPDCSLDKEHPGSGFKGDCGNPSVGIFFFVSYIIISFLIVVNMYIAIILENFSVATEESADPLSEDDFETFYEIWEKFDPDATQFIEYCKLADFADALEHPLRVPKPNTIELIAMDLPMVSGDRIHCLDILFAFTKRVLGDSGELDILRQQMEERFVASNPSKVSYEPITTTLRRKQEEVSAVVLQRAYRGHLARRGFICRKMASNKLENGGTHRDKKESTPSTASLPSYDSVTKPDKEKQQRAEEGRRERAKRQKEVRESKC

As for `C[C@H](c1cccc2c1CNCC2)n1c(=O)oc2cc(S(=O)(=O)Nc3ncns3)ccc21` [SSCI-3], the negative logarithm of the IC50 (pIC50) (usually −log10 of the IC50, conventionally taken in molar units) on Rat NaV1.6 is 5.09; against Human NaV1.4, under 4.52; at Human NaV1.7, 6.00. Further, in data set [1] (rat CV/R assay, IV, 10 mg/kg), the mortality result is given as “No mortality”. Further, in data set [1] (rat CV/R assay, IV, 30 mg/kg), the time of mortality lay in the range of 20 to 21 min. For the same molecule, the results for the “∆ Heart Rate” value in data set [1] (setting [2]), in data set [1] (setting [3]) and in data set [1] (setting [4]) were 3.0 ± 0.7 bpm, 5.0 ± 1.9 bpm and 5.6 ± 1.7 bpm, respectively. In addition, the results for the “∆ Mean Arterial Pressure” value in data set [1] (setting [2]), in data set [1] (setting [3]) and in data set [1] (setting [4]) were 12.9 ± 2.1 mmHg, 6.8 ± 8.7 mmHg and 13.8 ± 0.7 mmHg, respectively. For the same molecule, the “∆ respiratory rate” value in data set [1] (setting [2]) is −8.5 ± 1.8%; in data set [1] (setting [3]), −3.2 ± 1.8%; in data set [1] (rat, IV infusion, 30 mg/kg, 20–21 min) it was −100%; in data set [1] (setting [4]) it was −6.2 ± 5.4%. For the same molecule, the entries for the “∆ QRS Interval” value in data set [1] (setting [3]) and in data set [1] (setting [4]) were 0.5 ± 0.2 and 0.3 + 0.4, respectively.
As for `O=S(=O)(Nc1nccs1)c1cc(Cl)c(NCCCCNC[C@H]2CCCN2)cc1F` [SSCI-1], the results for the pIC50 on Rat NaV1.6, against Human NaV1.4 and at Human NaV1.7 were 4.72, under 4.52 and 7.19, respectively. Besides, the mortality entry in data set [1] (setting [5]) is “No mortality”. Besides, the “effects on cardiovascular and respiratory parameters” value in data set [1] (rat CV/R assay, at unbound plasma exposure 16.9 μM) is recorded as “minimal effects”. Moreover, the “∆ Heart Rate” value is recorded as 0.5 ± 2.2 bpm in data set [1] (setting [6]); −1.8 ± 3.7 bpm in data set [1] (setting [7]); −1.4 ± 1.5 bpm in data set [1] (setting [8]); −0.5 ± 2.9 bpm in data set [1] (setting [9]); −0.4 ± 1.2 bpm in data set [1] (setting [4]); 2.1 ± 1.4 bpm in data set [1] (setting [10]). The “∆ Mean Arterial Pressure” value worked out at 4.1 ± 0.3 mmHg in data set [1] (setting [6]); 2.7 ± 0.5 mmHg in data set [1] (setting [7]); 2.2 ± 1.1 mmHg in data set [1] (setting [8]); 2.3 ± 2.5 mmHg in data set [1] (setting [9]); 10.5 ± 1.5 mmHg in data set [1] (setting [4]); 4.6 ± 1.9 mmHg in data set [1] (setting [10]). Moreover, the “∆ QRS Interval” value in data set [1] (setting [6]) was determined as 1.4 ± 0.6; in data set [1] (setting [7]) it was 2.5 ± 1.1; in data set [1] (setting [8]), 0.4 ± 0.6; in data set [1] (setting [9]), 0.4 ± 0.7; in data set [1] (setting [4]), 3.7 ± 0.9; in data set [1] (setting [10]) it was 3.9 ± 0.8. The “∆ respiratory rate” value in data set [1] (setting [6]) is on record as 0.8 ± 1.8%; in data set [1] (setting [7]), 4.5 ± 1.7%; in data set [1] (setting [8]), 1.9 ± 1.6%; in data set [1] (setting [9]), 4.0 ± 1.0%; in data set [1] (setting [4]), −10.1 ± 0.9%; in data set [1] (setting [10]) it was −24.8 ± 3.3%.
On Rat NaV1.6, `COc1ccc(CCC(c2cccc3c2CNCC3)n2c(=O)oc3cc(S(=O)(=O)Nc4ncns4)c(F)cc32)cc1` (centres unmarked) [SSCI-6] had a pIC50 of under 7.39. Moreover, the inhibition (commonly the change of the read-out against control, counted positive when it falls) at 0.041 µM against Rat NaV1.6 (at 41 nM) was 45%. On Human NaV1.7, this molecule had a pIC50 of 6.54. For the same molecule, the mortality entry in data set [1] (setting [5]) is “mortality”. In data set [1] (rat, IV infusion, 1 mg/kg, 20–23 min), the “∆ respiratory rate” value is −100%. In data set [1] (setting [11]), the “∆ Heart Rate” value is −0.1 ± 0.4 bpm, the “∆ Mean Arterial Pressure” value is 8.2 ± 7.9 mmHg, the “∆ QRS Interval” value was determined as 1.0 ± 0.8 and the “∆ respiratory rate” value is −18.3 ± 9.3%. Moreover, in data set [1] (setting [12]), the “∆ Heart Rate” value stood at 1.7 bpm, the “∆ Mean Arterial Pressure” value is 7.5 mmHg, the “∆ QRS Interval” value stood at 1.7 and the “∆ respiratory rate” value was −7.8%.
Take `N#Cc1cc(S(=O)(=O)Nc2cscn2)ccc1Oc1ccc(Cl)cc1-c1ccnn1C1CNC1` [SSCI-5]: the negative logarithm of the IC50 (pIC50) against Rat NaV1.6 was 5.13; against Human NaV1.4 it was under 4.52; at Human NaV1.7, 5.68. In data set [1] (setting [5]), the mortality result was “mortality”. For the same molecule, the “∆ Heart Rate” value in data set [1] (setting [4]) is given as −1.7 ± 1.3 bpm; in data set [1] (setting [10]) it was −3.7 ± 2.8 bpm; in data set [1] (setting [13]) it was 1.0 bpm. For the same molecule, the figures for the “∆ Mean Arterial Pressure” value in data set [1] (setting [4]), in data set [1] (setting [10]) and in data set [1] (setting [13]) were 14.0 ± 2.1 mmHg, 13.3 ± 5.5 mmHg and 5.2 mmHg, respectively. Also, the “∆ QRS Interval” value turned out to be 1.5 ± 1.1 in data set [1] (setting [4]), 4.6 ± 3.2 in data set [1] (setting [10]) and 5.2 in data set [1] (setting [13]). The “∆ respiratory rate” value was −13.0 ± 3.4% in data set [1] (setting [4]); −10.2 ± 2.6% in data set [1] (setting [10]); −100% in data set [1] (rat, IV infusion, 60 mg/kg, 21–23 min); −15.6% in data set [1] (setting [13]). For the same molecule, in data set [1] (rat, infusion without ventilatory support), the “time to respiratory and cardiac collapse” value is on record as at most 30 min.
